Our source for the Activity, activity and Km values is ChEMBL document CHEMBL2074466, “Breast cancer resistance protein exports sulfated estrogens but not free estrogens” (Mol Pharmacol, 2003).

Data set [1] deals with T1, Broad substrate specificity ATP-binding cassette transporter ABCG2 (Homo sapiens, UniProt Q9UNQ0).
T1 sequence (Q9UNQ0 whole entry): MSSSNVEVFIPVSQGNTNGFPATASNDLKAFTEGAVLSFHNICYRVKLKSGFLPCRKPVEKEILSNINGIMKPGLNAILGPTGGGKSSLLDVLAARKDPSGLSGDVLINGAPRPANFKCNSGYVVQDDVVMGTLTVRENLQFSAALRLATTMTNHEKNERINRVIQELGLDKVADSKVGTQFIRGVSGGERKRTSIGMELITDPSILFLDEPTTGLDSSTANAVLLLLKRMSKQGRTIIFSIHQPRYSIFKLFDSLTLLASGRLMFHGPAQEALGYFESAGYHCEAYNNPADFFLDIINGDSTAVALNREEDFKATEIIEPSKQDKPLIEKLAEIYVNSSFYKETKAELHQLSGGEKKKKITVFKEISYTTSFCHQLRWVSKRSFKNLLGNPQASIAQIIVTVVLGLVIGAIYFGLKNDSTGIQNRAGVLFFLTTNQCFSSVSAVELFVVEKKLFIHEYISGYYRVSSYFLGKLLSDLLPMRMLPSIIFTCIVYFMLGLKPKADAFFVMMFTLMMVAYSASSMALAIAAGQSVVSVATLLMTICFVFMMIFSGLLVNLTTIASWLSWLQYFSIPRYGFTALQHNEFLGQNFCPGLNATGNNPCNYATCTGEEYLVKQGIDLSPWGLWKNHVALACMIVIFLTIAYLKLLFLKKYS
Description: TP_TRANSPORTER: efflux in BCRP-expressing LLC-PK1 cells. Particulars: pig. The format is functional, cell-based.

The target of data set [2] is T2, BCRP (ABCG2) (Homo sapiens, UniProt Q9UNQ0).
T2 sequence (Q9UNQ0 whole entry): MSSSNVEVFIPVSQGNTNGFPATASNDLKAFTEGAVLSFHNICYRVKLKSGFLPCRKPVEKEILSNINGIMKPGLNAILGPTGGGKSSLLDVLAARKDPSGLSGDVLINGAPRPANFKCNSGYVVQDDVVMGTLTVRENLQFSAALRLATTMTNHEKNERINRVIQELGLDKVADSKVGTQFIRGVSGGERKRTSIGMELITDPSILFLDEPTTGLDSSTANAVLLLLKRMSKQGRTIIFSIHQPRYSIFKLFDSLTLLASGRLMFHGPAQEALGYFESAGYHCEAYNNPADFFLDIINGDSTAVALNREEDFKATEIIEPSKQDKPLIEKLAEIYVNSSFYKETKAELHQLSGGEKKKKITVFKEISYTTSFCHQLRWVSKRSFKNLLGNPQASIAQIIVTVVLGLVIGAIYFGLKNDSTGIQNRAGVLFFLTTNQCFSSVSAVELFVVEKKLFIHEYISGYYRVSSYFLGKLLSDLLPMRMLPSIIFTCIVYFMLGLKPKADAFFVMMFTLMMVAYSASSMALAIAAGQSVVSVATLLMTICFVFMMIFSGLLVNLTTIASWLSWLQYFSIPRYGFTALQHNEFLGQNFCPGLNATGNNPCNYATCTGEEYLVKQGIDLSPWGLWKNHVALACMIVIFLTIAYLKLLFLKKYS
The data set can be described thus: TP_TRANSPORTER: inhibition of E1S uptake by 17beta-estradiol 3-sulfate at a concentration of 30uM in membrane vesicle from BCRP-expressing K562 cells. Particulars: membrane vesicles from BCRP-expressing K562 cells, probe E1S, read-out: Activity. Set-up: scale not given: the % may be the effect or the level left. Type of data set: functional, cell membranes.

Data set [3] concerns the target T2, BCRP (ABCG2). Description: TP_TRANSPORTER: inhibition of E1S uptake by Taurolithocholate-3-sulfate at a concentration of 30uM in membrane vesicle from BCRP-expressing K562 cells. The format is functional, cell membranes. Set-up: scale not given: the % may be the effect or the level left. Particulars: membrane vesicles from BCRP-expressing K562 cells, probe E1S, read-out: Activity.

Data set [4] deals with T1, Broad substrate specificity ATP-binding cassette transporter ABCG2. Description: TP_TRANSPORTER: inhibition of E1S uptake by 7-ethyl-10-hydroxycamptothecin at a concentration of 20uM in membrane vesicle from BCRP-expressing K562 cells. Set-up: scale not given: the % may be the effect or the level left. Type of data set: functional, cell membranes. Conditions: k562, 20 µM.

For data set [5] the target is unchanged. Description: TP_TRANSPORTER: drug resistance in BCRP-expressing LLC-PK1 cells. The format is functional, cell-based. Particulars: pig.
For data set [6], the target named is T2, BCRP (ABCG2). Description: TP_TRANSPORTER: inhibition of E1S uptake by 17beta-estradiol at a concentration of 30uM in membrane vesicle from BCRP-expressing K562 cells. The format is functional, cell membranes. Set-up: scale not given: the % may be the effect or the level left. Particulars: membrane vesicles from BCRP-expressing K562 cells, probe E1S, read-out: Activity.

Data set [7] has as its target T1, Broad substrate specificity ATP-binding cassette transporter ABCG2. Description: TP_TRANSPORTER: uptake in BCRP-expressing LLC-PK1 cells. Conditions: pig. The format is functional, cell-based.
The target of data set [8] is T2, BCRP (ABCG2). Description: TP_TRANSPORTER: inhibition of E1S uptake by Estrone at a concentration of 30uM in membrane vesicle from BCRP-expressing K562 cells. The format is functional, cell membranes. On the set-up: scale not given: the % may be the effect or the level left. Conditions: membrane vesicles from BCRP-expressing K562 cells, probe E1S, read-out: Activity.

Data set [9] concerns the target T1, Broad substrate specificity ATP-binding cassette transporter ABCG2. The data set can be described thus: TP_TRANSPORTER: inhibition of E1S uptake by Cortisol at a concentration of 30uM in membrane vesicle from BCRP-expressing K562 cells. Type of data set: functional, cell membranes. On the set-up: scale not given: the % may be the effect or the level left. Particulars: k562, 30 µM.

Data set [10] addresses T2, BCRP (ABCG2). The data set can be described thus: TP_TRANSPORTER: inhibition of E1S uptake by Dehydroepiandrosterone-3-sulfate at a concentration of 30uM in membrane vesicle from BCRP-expressing K562 cells. Type of data set: functional, cell membranes. On the set-up: scale not given: the % may be the effect or the level left. Conditions: membrane vesicles from BCRP-expressing K562 cells, probe E1S, read-out: Activity.

In data set [11] the target is T2, BCRP (ABCG2). The data set can be described thus: TP_TRANSPORTER: inhibition of E1S uptake by Taurolithocholate at a concentration of 30uM in membrane vesicle from BCRP-expressing K562 cells. Type of data set: functional, cell membranes. On the set-up: scale not given: the % may be the effect or the level left. Conditions: membrane vesicles from BCRP-expressing K562 cells, probe E1S, read-out: Activity.

Substrate in data set [12]: C[C@]12CC[C@@H]3c4ccc(OS(=O)(=O)O)cc4CC[C@H]3[C@@H]1CCC2=O
The data set can be described thus: TP_TRANSPORTER: uptake in membrane vesicle from BCRP-expressing K562 cells. The format is functional, cell membranes.

For `C[C@]12CC[C@@H]3c4ccc(OS(=O)(=O)O)cc4CC[C@H]3[C@@H]1CC[C@@H]2O`, in data set [1], the Activity result is “substrate []”. Besides, on BCRP (ABCG2) [2], the activity at 30 µM came out at 50%.

`C[C@H](CCC(=O)NCCS(=O)(=O)O)C1CC[C@H]2[C@@H]3CC[C@@H]4C[C@H](OS(=O)(=O)O)CC[C@]4(C)[C@H]3CC[C@]12C` (some centres undefined): at BCRP (ABCG2) [3], the activity at 30 µM stood at 30%.

For `CCc1c2c(nc3ccc(O)cc13)-c1cc3c(c(=O)n1C2)COC(=O)[C@]3(O)CC` [7-ETHYL-10-HYDROXYCAMPTOTHECIN], the Activity in data set [4] is 40%; in data set [5] it was “substrate []”.

With `C[C@]12CC[C@@H]3c4ccc(O)cc4CC[C@H]3[C@@H]1CC[C@@H]2O` [ESTRADIOL], the activity at 30 µM at BCRP (ABCG2) [6] is 50%.

As to `C[C@]12CC[C@@H]3c4ccc(OS(=O)(=O)O)cc4CC[C@H]3[C@@H]1CCC2=O` [ESTRONE SULFURIC ACID], in data set [7], the Activity result is “substrate []”.

For `C[C@]12CC[C@@H]3c4ccc(O)cc4CC[C@H]3[C@@H]1CCC2=O` [ESTRONE], the activity at 30 µM on BCRP (ABCG2) [8] turned out to be 70%.

Regarding `COc1ccc2c3c([nH]c2c1)[C@H](C=C(C)C)N1C(=O)[C@@H]2CCCN2C(=O)[C@@H]1C3` [FUMITREMORGIN], in data set [5], the Activity entry was “substrate []”.

As for `C[C@]12CCC(=O)C=C1CC[C@@H]1[C@@H]2[C@@H](O)C[C@@]2(C)[C@H]1CC[C@]2(O)C(=O)CO` [HYDROCORTISONE], the Activity in [9] was determined as 70%.

As to `O=C1c2c(O)ccc(O)c2C(=O)c2c(NCCNCCO)ccc(NCCNCCO)c21` [MITOXANTRONE], in [5], the Activity result was “substrate []”.

On to `C[C@]12CC[C@H](OS(=O)(=O)O)CC1=CC[C@@H]1[C@@H]2CC[C@]2(C)C(=O)CC[C@@H]12` [PRASTERONE SULFURIC ACID], for which, on BCRP (ABCG2) [10], the activity at 30 µM worked out at 50%.

Consider `C[C@H](CCC(=O)NCCS(=O)(=O)O)[C@H]1CC[C@H]2[C@@H]3CC[C@@H]4C[C@H](O)CC[C@]4(C)[C@H]3CC[C@]12C` [TAUROLITHOCHOLIC ACID], for which, on BCRP (ABCG2) [11], the activity at 30 µM turned out to be 20%.

B1: Broad substrate specificity ATP-binding cassette transporter ABCG2 (Homo sapiens) (protein)
chain: MSSSNVEVFIPVSQGNTNGFPATASNDLKAFTEGAVLSFHNICYRVKLKSGFLPCRKPVEKEILSNINGIMKPGLNAILGPTGGGKSSLLDVLAARKDPSGLSGDVLINGAPRPANFKCNSGYVVQDDVVMGTLTVRENLQFSAALRLATTMTNHEKNERINRVIQELGLDKVADSKVGTQFIRGVSGGERKRTSIGMELITDPSILFLDEPTTGLDSSTANAVLLLLKRMSKQGRTIIFSIHQPRYSIFKLFDSLTLLASGRLMFHGPAQEALGYFESAGYHCEAYNNPADFFLDIINGDSTAVALNREEDFKATEIIEPSKQDKPLIEKLAEIYVNSSFYKETKAELHQLSGGEKKKKITVFKEISYTTSFCHQLRWVSKRSFKNLLGNPQASIAQIIVTVVLGLVIGAIYFGLKNDSTGIQNRAGVLFFLTTNQCFSSVSAVELFVVEKKLFIHEYISGYYRVSSYFLGKLLSDLLPMRMLPSIIFTCIVYFMLGLKPKADAFFVMMFTLMMVAYSASSMALAIAAGQSVVSVATLLMTICFVFMMIFSGLLVNLTTIASWLSWLQYFSIPRYGFTALQHNEFLGQNFCPGLNATGNNPCNYATCTGEEYLVKQGIDLSPWGLWKNHVALACMIVIFLTIAYLKLLFLKKYS
As to B1, the Km in data set [12] stood at 6.8 µM.
